From PubChem BioAssay (NCI) come the findings set out here.

Each structure is given as a SMILES string.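 Briefly, cells in 96-well plates were exposed to five compound concentrations for 48 h, and endpoints were estimated by linear interpolation. TGI marks complete inhibition of growth.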

Experiment in all cases: inhibition of tumour cell growth, NCI panel, 48 h
In assay [1] the test system is MDA-MB-231 breast.
Assay [2] has as its system MDA-N.
Assay [3] concerns UACC-62 melanoma.
The subject of assay [4] is NCI-H226 lung.
Assay [5] deals with OVCAR-3 ovarian.
Assay [6] relates to HCC-2998 colon.
Assay [7] deals with UACC-257 melanoma.
Assay [8] relates to LOX IMVI melanoma.
In assay [9] the test system is BT-549 breast.
The subject of assay [10] is OVCAR-4 ovarian.
The test system of assay [11] is HL-60(TB) leukemia.
Assay [12] has as its system SK-MEL-28 melanoma.

In the case of `C/C(=N/NC(=S)Nc1cccc(C)c1)c1ccccn1`, the TGI in [1] was found to be 2.45 µM; in assay [2] it was 3.61 µM; in assay [3] it was 2.92 µM; in assay [4], 1.28 µM; in assay [5] it was 0.118 µM; in assay [6], 4.18 µM. The TGI in assay [7] is 4.44 µM; in assay [8], 9.93 µM; in assay [9] it was 12.2 µM; in assay [10] it was 8.93 µM; in assay [11], less than 0.158 µM; in assay [12], 7.61 µM.
On to `O=C1CC(c2ccc([N+](=O)[O-])cc2)C2(C(=O)NC(=S)NC2=O)C(c2ccc([N+](=O)[O-])cc2)C1` (stereo unspecified), for which the TGI was 37.3 µM in assay [1]; more than 100 µM in assay [2]; 32.6 µM in assay [3]; 36.9 µM in assay [4]; 76.1 µM in assay [5]; 49.8 µM in assay [6]. In addition, the TGI in assay [7] was 40.9 µM; in [8], 39.4 µM; in [9], 34.1 µM; in [10], more than 100 µM; in assay [11], more than 100 µM; in [12], more than 100 µM.
Regarding `NCCCC(N)C(=O)O` (stereo unspecified), the TGI in assay [1], in assay [2], in assay [3], in [4], in assay [5] and in [7] was more than 100 µM in each case. In addition, the TGI in [8], in [9], in assay [10], in assay [11] and in [12] was more than 100 µM each time.
Take `CSc1c(C(=O)Nc2ccc(C)cc2)c(N)[nH]c(=O)c1C#N`: the TGI in [1], in [2], in assay [3], in [4], in assay [5] and in assay [6] was more than 100 µM in each case. In addition, the TGI in [7], in assay [8], in [9], in assay [10], in assay [11] and in [12] was more than 100 µM throughout.
On to `CCOC(=O)c1cnc2[nH]ccn2c1=O`, for which the TGI in assay [1], in [2], in assay [3], in assay [4], in assay [5] and in [7] was more than 10 µM in each case. In addition, the TGI in assay [8], in assay [9], in assay [10], in [11] and in assay [12] was more than 10 µM in each case.
As to `O=C1C(Br)=Cc2c(Cl)sc(Cl)c21`, the TGI in assay [1] is 8.91 µM; in assay [2], 8.7 µM; in assay [3], 27.2 µM; in [4], more than 100 µM; in assay [5] it was 12.1 µM; in assay [6], 7.71 µM. In addition, the TGI is more than 28.5 µM in [7]; 5.84 µM in assay [8]; 88.4 µM in [9]; 8.81 µM in assay [10]; 6.3 µM in [11]; 41.3 µM in [12].
Consider `COc1ccc2c(c1)C(=O)c1ccccc1C2`, for which the TGI in [1] is 76.3 µM; in [2], more than 100 µM; in assay [3], more than 100 µM; in assay [4] it was more than 100 µM; in assay [5] it was more than 100 µM; in assay [6], more than 100 µM. Also, the TGI in assay [7], in [8], in assay [9], in assay [10], in [11] and in assay [12] was more than 100 µM throughout.
Turning to `Nc1ncnc2c1ncn2C(=O)NC12CC3CC(CC(C3)C1)C2`, the TGI in assay [1], in assay [2], in assay [3], in assay [4], in assay [5] and in assay [6] was more than 100 µM in each case. The TGI in [7], in assay [8], in assay [9], in assay [10], in [11] and in assay [12] was more than 100 µM in each case.
As for `C[C@@H]1C[C@H](O)[C@]2(O)O[C@@H]3C[C@@]4(C=O)[C@@H](CC=C5[C@@H]4CC[C@]4(C)[C@@H](C6=CC(=O)OC6)CC[C@]54O)C[C@H]3O[C@@H]2O1`, the TGI in assay [1] stood at 2.65 µM; in [2], 0.195 µM; in assay [4] it was 0.233 µM; in assay [5] it was 0.308 µM; in assay [6] it was 0.285 µM; in [7], 0.372 µM. In addition, the results for the TGI in assay [9], in assay [10] and in assay [11] were 0.0508 µM, less than 0.0169 µM and 0.062 µM, respectively.
As to `CC(C)(CO)N1C(=O)c2ccccc2C1(O)c1ccc(Cl)cc1` (stereo unspecified), the TGI in [1], in [2], in assay [3], in assay [4], in assay [5] and in assay [6] was more than 100 µM throughout. Besides, the TGI in assay [7], in assay [9], in [10], in [11] and in [12] was more than 100 µM in each case.
As for `O=C(O[C@H](/C=C/c1ccccc1)P1(=O)N(Cc2ccccc2)[C@@H]2CCCC[C@H]2N1Cc1ccccc1)c1ccccc1`, the TGI is 21 µM in assay [1]; more than 100 µM in assay [2]; 40 µM in [3]; 7.98 µM in assay [4]; 94.3 µM in assay [5]; more than 100 µM in [6]. Further, the TGI in assay [7] was more than 100 µM; in assay [8], 11.8 µM; in [9], more than 100 µM; in assay [10], 6.19 µM; in [11] it was more than 100 µM; in [12], more than 100 µM.
